# Experimental data as given in ChEMBL document CHEMBL1201862, “PubChem BioAssay data set” (2004).
# Calls of active or inactive are those of the source.
# Experiments:
# [1] = Luminescence Cell-Based Dose Confirmation HTS to Identify Activators of 5'UTR Stem-Loop Driven Alpha-Synuclein mRNA Translation in H4 Neuroglioblastoma Cells. [Related pubchem assays: 1829 (Project Summary), 1814 (Primary HTS)]; assay type: functional
# [2] = Luminescence Cell-Based Dose Response HTS to Identify Activators of Luciferase Translation or Activity in H4 […] Cells. [Related pubchem assays: 1829 (Project Summary), 1814 (Primary HTS)]; assay type: functional
# H4 = assay: Luminescence Cell-Based Dose Response HTS to Identify Activators of 5'UTR Stem-Loop Driven Prion Protein mRNA Translation in H4 Neuroglioblastoma Cells. [Related pubchem assays: 1829 (Project Summary), 1814 (Primary HTS)]; assay type: functional; conditions: Homo sapiens
# [3] = growth suppression of PTEN-null colon cells, dose response, cell-based, HCT116 PTEN knockout (AID 1047); assay type: functional;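 also: HCT116 colon tumor cells with PTEN knocked out; cells exposed to compound for 60 hours before readout; potency for loss of cell viability measured by luminescence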
# [4] = growth suppression of beta-catenin-knockout colon cells, dose response, cell-based, HCT116, human colon tumor (AID 1045); assay type: functional;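 also: HCT116 colon tumor cells with beta catenin knocked out; cells exposed to compound for 60 hours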
# [5] = target: T1, Heat shock factor protein 1 (Mus musculus, UniProt P38532); assay: HSF1 potentiators in luciferase reporter cells, confirmation, cell-based, NIH3T3, luminescence, dose retest (AID 435004); assay type: functional;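 also: stress induced by proteasome inhibitor MG132 added 30 min after compound; luciferase reporter driven by HSF1 response element in NIH3T3 cells; actives raise luminescence as potentiators of the MG132 stress response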
# T1 sequence (P38532 whole entry): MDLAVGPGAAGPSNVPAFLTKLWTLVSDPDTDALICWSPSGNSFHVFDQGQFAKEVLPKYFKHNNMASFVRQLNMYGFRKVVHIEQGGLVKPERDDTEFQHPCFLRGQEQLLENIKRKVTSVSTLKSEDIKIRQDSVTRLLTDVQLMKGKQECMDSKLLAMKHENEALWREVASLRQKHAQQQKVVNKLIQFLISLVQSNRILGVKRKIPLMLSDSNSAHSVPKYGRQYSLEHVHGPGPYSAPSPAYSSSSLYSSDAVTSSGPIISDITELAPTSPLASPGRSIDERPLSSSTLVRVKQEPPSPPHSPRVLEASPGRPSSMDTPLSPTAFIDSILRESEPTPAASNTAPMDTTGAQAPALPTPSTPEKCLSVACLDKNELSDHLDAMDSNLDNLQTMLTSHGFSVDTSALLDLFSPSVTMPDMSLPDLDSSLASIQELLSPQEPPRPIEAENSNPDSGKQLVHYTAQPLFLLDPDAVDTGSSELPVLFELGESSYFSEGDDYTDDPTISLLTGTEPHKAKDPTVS
# [6] = target: T1, Heat shock factor protein 1; assay: inhibition of MG132-induced HSE-luciferase signal, confirmation, cell-based, NIH3T3, luminescence, dose retest (AID 2382); assay type: functional;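 also: NIH3T3 fibroblasts with HSF1-driven luciferase reporter stressed by proteasome inhibitor MG132; luminescence from HSF1-driven luciferase expression after 8 hours of MG132 stress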
# [7] = target: T2, Replicative DNA helicase DnaB (Mycobacterium tuberculosis, UniProt P9WMR3); assay: DnaB intein splicing inhibitors, dose response, biochemical, cell-free fluorescence (AID 449749); assay type: functional
# T2 sequence (P9WMR3 whole entry): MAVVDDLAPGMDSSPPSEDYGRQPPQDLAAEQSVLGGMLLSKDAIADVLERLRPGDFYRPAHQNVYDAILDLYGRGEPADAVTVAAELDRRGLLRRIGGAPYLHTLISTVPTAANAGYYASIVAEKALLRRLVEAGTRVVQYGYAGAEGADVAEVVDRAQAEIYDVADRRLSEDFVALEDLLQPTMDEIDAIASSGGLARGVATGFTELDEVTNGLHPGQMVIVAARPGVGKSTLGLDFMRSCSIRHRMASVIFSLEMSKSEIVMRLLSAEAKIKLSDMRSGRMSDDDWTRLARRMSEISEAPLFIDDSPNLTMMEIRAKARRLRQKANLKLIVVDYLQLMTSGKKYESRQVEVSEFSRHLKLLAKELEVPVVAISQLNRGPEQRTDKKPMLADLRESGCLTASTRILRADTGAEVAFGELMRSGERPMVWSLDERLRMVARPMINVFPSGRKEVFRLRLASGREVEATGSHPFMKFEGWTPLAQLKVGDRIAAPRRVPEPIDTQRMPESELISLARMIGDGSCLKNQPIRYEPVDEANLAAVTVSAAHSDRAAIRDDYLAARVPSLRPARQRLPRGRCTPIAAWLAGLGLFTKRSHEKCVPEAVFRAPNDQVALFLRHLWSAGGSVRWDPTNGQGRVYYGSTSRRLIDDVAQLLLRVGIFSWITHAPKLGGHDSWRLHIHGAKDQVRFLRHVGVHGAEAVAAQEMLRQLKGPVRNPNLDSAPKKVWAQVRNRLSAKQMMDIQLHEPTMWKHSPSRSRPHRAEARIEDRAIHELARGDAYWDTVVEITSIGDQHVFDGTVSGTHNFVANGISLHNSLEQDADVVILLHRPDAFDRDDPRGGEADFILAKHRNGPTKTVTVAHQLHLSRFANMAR
# Protein RecA = target: T3, Protein RecA (Mycobacterium tuberculosis, UniProt P9WHJ3); assay: Fluorescence Cell-Free Homogeneous Dose Retest to Identify Inhibitors of RecA-Intein Splicing Activity. [Related pubchem assays (depositor defined):AID2097, AID2223, AID489010, AID492950]; assay type: functional
# T3 sequence (P9WHJ3 whole entry): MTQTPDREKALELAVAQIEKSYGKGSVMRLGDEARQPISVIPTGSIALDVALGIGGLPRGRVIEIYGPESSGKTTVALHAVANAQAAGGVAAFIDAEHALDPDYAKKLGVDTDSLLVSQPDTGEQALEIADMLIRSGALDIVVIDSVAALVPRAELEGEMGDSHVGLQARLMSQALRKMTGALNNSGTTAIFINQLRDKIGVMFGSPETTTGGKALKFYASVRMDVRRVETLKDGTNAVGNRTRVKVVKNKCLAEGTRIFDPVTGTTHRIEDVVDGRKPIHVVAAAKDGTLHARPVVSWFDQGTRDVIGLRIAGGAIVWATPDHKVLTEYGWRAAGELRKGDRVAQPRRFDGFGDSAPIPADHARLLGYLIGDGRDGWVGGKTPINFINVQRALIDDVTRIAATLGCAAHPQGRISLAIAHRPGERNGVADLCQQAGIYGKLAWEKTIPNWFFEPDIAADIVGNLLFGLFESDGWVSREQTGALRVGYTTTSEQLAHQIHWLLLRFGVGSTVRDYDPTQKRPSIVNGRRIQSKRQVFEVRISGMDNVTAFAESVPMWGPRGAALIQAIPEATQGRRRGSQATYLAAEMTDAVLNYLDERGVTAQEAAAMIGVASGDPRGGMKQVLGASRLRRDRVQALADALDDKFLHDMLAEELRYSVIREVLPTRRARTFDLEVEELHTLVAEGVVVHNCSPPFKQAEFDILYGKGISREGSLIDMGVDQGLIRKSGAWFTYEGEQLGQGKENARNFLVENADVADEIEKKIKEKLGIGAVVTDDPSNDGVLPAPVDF
# [8] = tested on: Streptococcus sp. 'group A'; assay: growth inhibition of control SK(-) GAS strain, dose response, counter-screen for streptokinase expression inhibitor project, luminescence, kanamycin, BacTiterGlo, confirmation (AID 1900); assay type: functional, organism-based
# Streptokinase A = target: T4, Streptokinase A (Streptococcus pyogenes serotype M1, UniProt P10520); assay: S. pyogenes streptokinase expression inhibitors, potency, dose response, plasminogen activation absorbance, OD405 (AID 1914); assay type: functional, Streptococcus pyogenes M1 GAS;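 also: secreted streptokinase activity via plasminogen activation per viability signal from cell pellet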
# T4 sequence (P10520 whole entry): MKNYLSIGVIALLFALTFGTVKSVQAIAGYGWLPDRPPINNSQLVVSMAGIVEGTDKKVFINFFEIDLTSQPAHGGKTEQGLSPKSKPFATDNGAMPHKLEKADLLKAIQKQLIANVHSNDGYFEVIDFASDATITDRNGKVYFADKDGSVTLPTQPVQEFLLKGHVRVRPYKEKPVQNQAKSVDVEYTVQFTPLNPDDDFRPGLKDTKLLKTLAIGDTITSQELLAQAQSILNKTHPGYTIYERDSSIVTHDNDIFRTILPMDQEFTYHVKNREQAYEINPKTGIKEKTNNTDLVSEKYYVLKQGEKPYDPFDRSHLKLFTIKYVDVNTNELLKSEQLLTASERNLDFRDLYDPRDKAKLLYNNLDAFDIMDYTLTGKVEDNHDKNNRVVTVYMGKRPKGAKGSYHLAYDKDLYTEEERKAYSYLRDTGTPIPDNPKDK
# Streptococcus = assay: Group A Streptococcus viability loss, dose response, counter-screen for streptokinase expression inhibitor project, luminescence, BacTiterGlo (AID 1915); assay type: functional, organism-based;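 also: potency for reduction of bacterial viability or growth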
# Cytochrome P450 2D6 = Cytochrome P450 2D6 (Homo sapiens, UniProt P10635);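 also: CYP2D6 member of a cytochrome P450 panel assay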
# Sequence of Cytochrome P450 2D6 (P10635 whole entry): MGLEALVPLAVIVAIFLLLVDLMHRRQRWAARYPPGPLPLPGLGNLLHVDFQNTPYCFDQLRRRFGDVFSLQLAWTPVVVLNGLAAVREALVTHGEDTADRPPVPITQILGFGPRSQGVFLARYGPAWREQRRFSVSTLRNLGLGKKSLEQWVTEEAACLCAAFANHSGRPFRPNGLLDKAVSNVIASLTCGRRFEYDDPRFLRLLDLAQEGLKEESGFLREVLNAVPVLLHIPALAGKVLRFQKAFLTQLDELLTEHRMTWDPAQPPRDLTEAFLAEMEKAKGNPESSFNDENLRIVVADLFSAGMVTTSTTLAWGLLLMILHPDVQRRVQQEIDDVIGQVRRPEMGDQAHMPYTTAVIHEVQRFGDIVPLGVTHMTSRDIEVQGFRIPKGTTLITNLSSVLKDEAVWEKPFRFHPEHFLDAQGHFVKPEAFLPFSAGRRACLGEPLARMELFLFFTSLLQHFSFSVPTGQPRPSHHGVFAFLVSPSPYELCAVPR
# Cytochrome P450 2C19 = Cytochrome P450 2C19 (Homo sapiens, UniProt P33261); assay: Cytochrome panel assay with activity outcomes. Panel member name: p450-cyp2c19 Compounds with AC50 equal or less than 10 uM are considered active; assay type: functional; conditions: read-out: AC50
# Sequence of Cytochrome P450 2C19 (P33261 whole entry): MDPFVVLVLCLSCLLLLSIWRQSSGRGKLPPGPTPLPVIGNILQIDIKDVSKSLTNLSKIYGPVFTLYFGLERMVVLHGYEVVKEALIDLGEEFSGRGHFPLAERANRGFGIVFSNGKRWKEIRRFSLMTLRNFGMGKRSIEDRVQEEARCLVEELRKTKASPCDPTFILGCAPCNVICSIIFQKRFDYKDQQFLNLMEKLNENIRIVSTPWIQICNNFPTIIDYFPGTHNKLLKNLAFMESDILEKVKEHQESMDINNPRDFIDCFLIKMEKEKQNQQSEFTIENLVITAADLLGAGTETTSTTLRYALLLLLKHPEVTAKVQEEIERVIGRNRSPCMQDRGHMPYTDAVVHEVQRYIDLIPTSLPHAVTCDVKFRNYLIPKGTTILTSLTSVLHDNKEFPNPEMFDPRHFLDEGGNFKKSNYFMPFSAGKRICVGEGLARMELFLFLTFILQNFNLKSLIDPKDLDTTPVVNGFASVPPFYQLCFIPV
SMILES,EC50 [1],EC50 [2],EC50 (H4),further results
C=C1C[C@@H]2[C@H](CC[C@]3(C)C(=O)CC[C@@H]23)[C@@]2(C)C=CC(=O)C=C12 [EXEMESTANE],2.79 µM (active),6.44 µM (active),26.7 µM (active),–
Cc1ccc(Cn2ccnc2C(=O)Nc2ccccc2)cc1,30.4 µM (active),58 µM (active),–,–
CCCn1c(SCc2nc(O)c3c(C)c(C)sc3n2)nc2ccccc2c1=O,–,–,–,EC50 [3]: 11.8 µM (active); EC50 [4]: 12.5 µM (active); EC50 [5]: 71.9 µM (active)
Cc1csc(SCC(=O)c2c(N)n(C)c(=O)n(C)c2=O)n1,2.14 µM (active),29.5 µM (active),> 120 µM (not active),–
COc1ccc(C(CCN(Cc2ccc(OC)c(OC)c2)C(=O)CCl)c2ccccc2)cc1 (centres undefined),–,–,–,EC50 [6]: 3.19 µM (active); EC50 [3]: 3.07 µM (active); EC50 [4]: 3 µM (active); AC50 [7]: 1.12 µM (active); EC50 (Protein RecA): 0.269 µM (active)
CC(C)(C)c1ccc(-c2noc(-c3ccc4c(c3)CCO4)n2)cc1,0.493 µM (active),2.25 µM (active),0.553 µM (active),EC50 [8]: 5.26 µM (active); EC50 (Streptokinase A): 46 µM (active); EC50 (Streptococcus): > 150 µM (not active)
CCCCNC(=O)Cn1nc([N+](=O)[O-])c([N+](=O)[O-])c1C,> 120 µM (not active),11.1 µM (active),35.2 µM (active),–
Cc1ccc(C)n1-c1ccc(C(=O)Nc2ccccc2F)cc1,11.6 µM (active),43.1 µM (active),14.5 µM (active),–
O=C(O)c1ccc(Cn2cnc3scc(-c4ccccc4)c3c2=O)cc1,9.7 µM (active),> 120 µM (not active),> 120 µM (not active),–
Cc1ccc(C(C(=O)NC2CCCC2)N(C(=O)Cc2cccs2)c2ccc3c(c2)OCCO3)cc1 (centres undefined),–,–,–,EC50 [3]: 46.5 µM (active); EC50 [4]: 62.8 µM (active)
Cc1ccc(NC2=C(C(=O)Nc3c(C)cc(C)cc3C)C(=N)C(C(=O)Nc3ccc(OC(F)(F)F)cc3)S2)cc1 (centres undefined),–,–,–,EC50 [3]: 40 µM (active); EC50 [4]: 42.8 µM (active)
Cc1ccc(-c2csc(NC(=O)CSc3n[nH]c4c5ccccc5nc-4n3)n2)cc1,–,–,–,EC50 [3]: 24.1 µM (active); EC50 [4]: 21.9 µM (active)
Oc1ccc(Cl)cc1/C=N\c1cnc2ccccc2c1,–,–,–,AC50 (Cytochrome P450 2D6): 5.01 µM (inconclusive)
COc1ccc(/N=C2/C(=N\c3ccc(OC)cc3)N(c3ccccc3)C(=S)N2C(=O)c2ccc(Cl)cc2)cc1,41.1 µM (active),47.3 µM (active),18.7 µM (active),–
Cc1nc2ccccc2c(=O)n1-c1ccc(Br)cn1,> 120 µM (not active),> 120 µM (not active),> 120 µM (not active),–
CSc1nncn1/N=C/c1ccc2c(c1)OCO2,–,–,–,AC50 (Cytochrome P450 2C19): 25.1 µM (inconclusive); AC50 (Cytochrome P450 2D6): 22.4 µM (inconclusive)
Cc1ccc(N/C([S-])=C(/C(=O)c2ccc(F)cc2)[n+]2ccccc2)cc1,–,–,–,AC50 [7]: > 380 µM (inactive); EC50 (Protein RecA): 69.7 µM (active)
Cc1ccc(-n2c([S-])c(C(=O)Nc3ccc(OC(F)F)cc3)[n+]3ccc(C(=O)NCCO)cc23)cc1C,7.99 µM (active),> 120 µM (not active),21.3 µM (active),–
COc1ccc(-c2cc(C(F)F)nc(-n3nc(C)cc3C)n2)cc1,–,–,–,AC50 (Cytochrome P450 2D6): 22.4 µM (inconclusive)
Cc1cc(C)nc(Sc2ccc3nnnn3n2)n1,24.7 µM (active),22.5 µM (active),11.3 µM (active),–
CCN(c1ccccc1)S(=O)(=O)c1ccc(NC(=S)NC(=O)c2ccc(Br)o2)cc1,–,–,–,AC50 (Cytochrome P450 2D6): 3.16 µM (inconclusive)
CCNc1ncc2nc(-c3ccc(F)cc3)c(=O)n(C[C@H]3CCCO3)c2n1,–,–,–,AC50 (Cytochrome P450 2D6): 0.631 µM (inconclusive)
Cc1cccc(N=Nc2c[nH]nc2-c2ccco2)c1,29.5 µM (active),14.7 µM (active),73.5 µM (active),–
Cn1c(SCC(=O)N2CCCCC2)nc2c3ccccc3nc-2c1O,–,–,–,EC50 [3]: 22.3 µM (active); EC50 [4]: 35.8 µM (active)
CCOC(=O)C/C(C)=N/NC(=O)COc1ccccc1C,–,–,–,AC50 [7]: 4.39 µM (active); EC50 (Protein RecA): 2.36 µM (active)
